# In patent US20090280160A1, “PHENYLEPHRINE PHARMACEUTICAL FORMULATIONS AND COMPOSITIONS FOR TRANSMUCOSAL ABSORPTION” (Schering-Plough Healthcare Products, Inc., priority 2007, published 2009):
# “Also recorded” adds a separate entry of the source.
# Columns and labels:
# [1] = in vivo; cited from earlier work
# [2] = cited from earlier work
# [3] = target: T1, α2b adrenoreceptor (Homo sapiens, UniProt P18089); assay: [35S]-GTPγS binding exchange, α2b CHO cell membranes; type: biochemical; conditions: for stimulation of [35S]-GTPγS binding, α2b (in words): CHO cell membranes
# T1 construct: expressed in transfected cells; host or cells: CHO (Chinese hamster ovary) cells, membranes
# T1 sequence (P18089 1-450): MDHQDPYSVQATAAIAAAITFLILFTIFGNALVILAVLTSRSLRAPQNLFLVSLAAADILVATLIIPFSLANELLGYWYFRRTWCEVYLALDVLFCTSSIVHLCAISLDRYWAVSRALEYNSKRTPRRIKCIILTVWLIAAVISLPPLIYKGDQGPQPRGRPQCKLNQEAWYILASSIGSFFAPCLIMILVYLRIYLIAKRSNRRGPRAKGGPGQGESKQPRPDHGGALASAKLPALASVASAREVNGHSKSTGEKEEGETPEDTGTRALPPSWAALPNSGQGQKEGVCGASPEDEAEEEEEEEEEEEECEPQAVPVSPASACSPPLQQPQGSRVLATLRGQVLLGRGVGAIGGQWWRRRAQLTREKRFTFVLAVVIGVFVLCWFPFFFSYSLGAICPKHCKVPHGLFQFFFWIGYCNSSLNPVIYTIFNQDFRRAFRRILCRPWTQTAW
# Procedure: (§1) The affinity and activity of phenylephrine metabolites were evaluated in human recombinant α1 and α2 adrenoreceptor binding and activity assays. […] Affinity of the metabolites was determined by receptor binding assays. Functional activity of the metabolites was assessed using an [^35S]-GTPγS binding exchange assay for the α2 receptor subtypes and a cell-based calcium flux response for the α1 receptor subtypes.
# (§2) Assay buffer was 75 mM Tris-HCl pH 7.4, 12.5 mM MgCl2, 2 mM EDTA and 1 μM GDP. Plates were counted on a Packard TopCount. The percent increase over basal binding of [^35S]-GTPγS, a measure of efficacy, was calculated as follows: 100×[[mean total sample cpm−basal cpm]÷by basal cpm]. Basal cpm was defined as the mean cpm in the absence of agonist compound minus the mean non-specific binding cpm.
# (§3) Each metabolite was evaluated in each assay in at least 2 independent experiments and a representative assay of each metabolite/assay combination is shown.
# [4] = target: T2, α1a adrenoreceptor (Homo sapiens, UniProt P35348); assay: Competition binding, [3H]-prazosin, α1a CHO cell membranes; conditions: for inhibition of 3H-prazosin binding, α1a (in words): CHO cell membranes
# T2 construct: expressed in transfected cells
# T2 sequence (P35348 1-466): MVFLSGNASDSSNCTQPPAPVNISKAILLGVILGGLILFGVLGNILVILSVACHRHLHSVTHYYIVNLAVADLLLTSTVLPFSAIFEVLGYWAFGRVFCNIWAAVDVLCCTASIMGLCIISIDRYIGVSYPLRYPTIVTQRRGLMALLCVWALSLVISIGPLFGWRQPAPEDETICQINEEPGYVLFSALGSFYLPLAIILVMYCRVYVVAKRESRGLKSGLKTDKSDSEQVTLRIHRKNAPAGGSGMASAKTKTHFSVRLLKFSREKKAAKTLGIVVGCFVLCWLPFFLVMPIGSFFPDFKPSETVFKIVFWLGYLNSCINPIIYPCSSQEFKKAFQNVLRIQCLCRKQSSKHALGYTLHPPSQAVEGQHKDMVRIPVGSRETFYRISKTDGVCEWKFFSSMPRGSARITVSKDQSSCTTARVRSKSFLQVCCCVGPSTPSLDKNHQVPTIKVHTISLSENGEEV
# [5] = target: T1, α2b adrenoreceptor; assay: Competition binding, [3H]-UK14304, α2b CHO cell membranes; conditions: for inhibition of [3H]-UK14304 binding, α2b (in words): CHO cell membranes
# Procedure: as §1
# (§4) Competition Binding Assays
# (§5) Competition binding assays for the α2 adrenoreceptors were performed using 20 μg membrane protein per well in binding buffer (75 mM Tris-HCl pH 7.4, 12.5 mM MgCl2, […] EDTA, 0.2% bovine serum albumin). […] Binding was terminated by rapid filtration through GF/C unifilter plates, presoaked with 0.3% polyethylenimine, with five washes with 0.5 ml cold 50 mM Tris-HCl ph 7.4, using a Packard Filtermate Harvester. After drying, bound radioactivity was determined by liquid scintillation counting (Packard TopCount) with Microscint 20, 50 μl/well. Binding data were analyzed using GraphPad Prism.
# as §3
# [6] = target: T3, α1b adrenoreceptor (Homo sapiens, UniProt P35368); assay: Cellular calcium flux (FLIPR), α1b expressing CHO cells; type: cell-based; conditions: α1b expressing CHO cells
# T3 construct: expressed in transfected cells
# T3 sequence (P35368 1-520): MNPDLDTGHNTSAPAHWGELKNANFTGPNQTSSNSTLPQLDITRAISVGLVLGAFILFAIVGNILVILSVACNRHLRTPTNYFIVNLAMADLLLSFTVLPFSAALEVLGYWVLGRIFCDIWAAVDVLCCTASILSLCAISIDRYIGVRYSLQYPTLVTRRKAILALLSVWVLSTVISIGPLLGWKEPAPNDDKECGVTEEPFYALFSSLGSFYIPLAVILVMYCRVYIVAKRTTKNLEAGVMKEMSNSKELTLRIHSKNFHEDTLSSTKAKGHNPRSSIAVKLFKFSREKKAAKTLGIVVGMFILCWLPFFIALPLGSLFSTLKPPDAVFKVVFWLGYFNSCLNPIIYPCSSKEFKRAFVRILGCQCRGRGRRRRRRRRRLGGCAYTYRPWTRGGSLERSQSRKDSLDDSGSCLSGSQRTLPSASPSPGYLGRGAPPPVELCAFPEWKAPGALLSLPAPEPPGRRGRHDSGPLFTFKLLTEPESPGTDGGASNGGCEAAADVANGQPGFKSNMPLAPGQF
# Procedure: as §1
# (§6) Intracellular calcium levels were measured using a fluorometric imaging plate reader (FLIPR). Cells expressing α1 adrenoreceptors were cultured overnight at 15,000 cells/well in 96 well black-wall clear bottom plates (Packard). Adherent cells were loaded for 1 hour at 37° C. using the FLIPR Calcium Plus Assay Kit (Molecular Probes, Eugene, Oreg.), which included 2.5 mM probenecid (Sigma). Compounds (at 10 mM in 100% DMSO) were diluted in diluting buffer (HBSS, 20 mM HEPES, 2.5 mM probenecid, 0.5% BSA, pH 7.4). A titration of norepinephrine was included in every experiment and norepinephrine (at 1 μM) was also used as a plate standard on each assay plate. Cells were maintained at 37° C. throughout all calcium measurements. Fluorescence data was collected at 1 second interval for 60 seconds, followed by collection at 2 second intervals for 30 seconds. Background fluorescence was quantitated in wells containing cells with no additions and was subtracted from all experimental samples. All conditions were done in quadruplicate. Non-linear regression analysis using GraphPad Prism was used to calculate EC50 values.
# as §3
# [7] = target: T3, α1b adrenoreceptor; assay: Competition binding, [3H]-prazosin, α1b CHO cell membranes; conditions: for inhibition of 3H-prazosin binding, α1b (in words): CHO cell membranes
# Procedure: as §1, §4, §5, §3
# [8] = target: T2, α1a adrenoreceptor; assay: Cellular calcium flux (FLIPR), α1a expressing CHO cells; type: cell-based; conditions: α1a expressing CHO cells
# Procedure: as §1, §6, §3
# [9] = target: T4, α2c adrenoreceptor (Homo sapiens, UniProt P18825); assay: Competition binding, [3H]-UK14304, α2c CHO cell membranes; conditions: for inhibition of [3H]-UK14304 binding, α2c (in words): CHO cell membranes
# T4 construct: expressed in transfected cells; host or cells: CHO (Chinese hamster ovary) cells, membranes
# T4 sequence (P18825 1-462): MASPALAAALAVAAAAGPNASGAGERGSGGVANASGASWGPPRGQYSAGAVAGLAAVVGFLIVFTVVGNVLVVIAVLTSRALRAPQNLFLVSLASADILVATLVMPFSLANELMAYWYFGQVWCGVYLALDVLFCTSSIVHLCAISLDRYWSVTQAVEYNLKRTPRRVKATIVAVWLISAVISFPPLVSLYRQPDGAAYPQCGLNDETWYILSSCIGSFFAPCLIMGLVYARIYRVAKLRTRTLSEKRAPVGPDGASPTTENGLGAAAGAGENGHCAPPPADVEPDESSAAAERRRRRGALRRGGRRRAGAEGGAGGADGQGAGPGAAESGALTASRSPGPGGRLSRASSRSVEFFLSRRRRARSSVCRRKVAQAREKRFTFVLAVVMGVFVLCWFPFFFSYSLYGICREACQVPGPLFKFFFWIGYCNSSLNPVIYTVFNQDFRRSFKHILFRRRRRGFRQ
# Procedure: as §1, §4, §5, §3
# [10] = target: T4, α2c adrenoreceptor; assay: [35S]-GTPγS binding exchange, α2c CHO cell membranes; type: biochemical; conditions: for stimulation of [35S]-GTPγS binding, α2c (in words): CHO cell membranes
# Procedure: as §1, §2, §3
# [11] = oral, approximately 24 mg of PE, healthy volunteers; cited from earlier work
# [12] = at 100 μM (highest concentration evaluated)
# [13] = listed as phenylephrine sulfate
Compound,half-life (t1/2) / elimination half-life [1] [h],"stimulation of [35S]-GTPγS binding, α2b (in words) [3]","inhibition of 3H-prazosin binding, α1a (in words) [4]","inhibition of [3H]-UK14304 binding, α2b (in words) [5]","increase in intracellular calcium, α1b calcium assay (in words) [6]","inhibition of 3H-prazosin binding, α1b (in words) [7]","increase in intracellular calcium, α1a calcium assay (in words) [8]","inhibition of [3H]-UK14304 binding, α2c (in words) [9]","stimulation of [35S]-GTPγS binding, α2c (in words) [10]",other results
CN1CCC(=C2c3ccccc3CCc3cccnc32)CC1 [Azatadine],9 to 12,,,,,,,,,
C[C@@H]1CN([C@H]2CC[C@](C#N)(c3ccc(F)cc3)CC2)CC[C@]1(C(=O)O)c1ccccc1 [Levocabastine],,,,,,,,,,duration of action ([2]; in vivo): 16 to 24 h
"CNC[C@H](O)c1cccc(O)c1 [PE, (R)-(−)-phenylephrine, reference compound]",,stimulates [^35S]-GTPγS binding,inhibits binding,inhibits [^3H]-UK14304 binding,increases intracellular calcium,inhibits binding,increases intracellular calcium,inhibits [^3H]-UK14304 binding,stimulates [^35S]-GTPγS binding,
Clc1ccc2c(c1)CCc1cccnc1C2=C1CCNCC1 [desloratadine],15 to 19,,,,,,,,,
CCOC(=O)N1CCC(=C2c3ccc(Cl)cc3CCc3cccnc32)CC1 [loratadine],,,,,,,,,,time to begin to elicit antihistaminic effect ([2]; exemplary conventional formulation): 1 to 3 h
(R)-PE sulfate,,No activity,No appreciable binding,no appreciable binding,minimal activity; also recorded: A very low level of activity,No appreciable binding,no and A very low level of activity,but not; also recorded: no appreciable binding,No activity,"activity in α2b [35S]-GTPγS assay (in words) ([3]; highest concentration, 100 μM): no activity; metabolite excreted in the urine [11]: 47 % of dose; binding / affinity, α1a receptor (in words) ([4]; concentrations up to 100 μM): no affinity; Ki ([5]; [3H]-UK14304, read-out: Ki, a2b Binding (class symbol)): > 100 µM; binding / affinity, α2b receptor (in words) [5, 12]: very minimal binding; also recorded: no affinity; increase in intracellular calcium, α1b calcium assay (in words) [6, 13]: induces minimal intracellular calcium increases; Ki ([7]; [3H]-prazosin, read-out: Ki, a1b Binding (class symbol)): > 100 µM; binding / affinity, α1b receptor (in words) ([7]; concentrations up to 100 μM): no affinity; increase in intracellular calcium, α1a calcium assay (in words) [8, 13]: induces minimal intracellular calcium increases; Ki ([9]; [3H]-UK14304, read-out: Ki, a2c Binding (class symbol)): > 100 µM; binding / affinity, α2c receptor (in words) [9, 12]: very minimal binding; also recorded: no affinity; activity in α2c [35S]-GTPγS assay (in words) ([10]; highest concentration, 100 μM): no activity"
